Source: US11324720B2, “Antiproliferative DNA polymerase inhibitor” (NEW YORK MEDICAL COLLEGE, priority 2018, dated 2022)

Experiments:
Pol δ = target: T1, Pol δ (Homo sapiens, UniProt P28340); assay: single nucleotide primer extension (incorporation) assay; format: biochemical; settings: single dNTP present
T1 construct: made in house; host or cells: insect cells (Pol δ); E. coli (PCNA)
Protocol: In our in silico screening, the active site cavity was created by the removal of dCTP in the original crystal structure. […] Therefore, we assayed the inhibition patterns of 4 individual dNTP molecules in a single nucleotide incorporation assays. In this assay, only one nucleotide is present for the primer extension for the next appropriate base paring to the template.
Briefly, the standard reaction mixture contained 5 μM dNTP, 5 mM MgCl2, 50 mM Tris-HCl (pH 7.5), 2 mM dithiothreitol, […] BSA, 50 mM NaCl, 20 nM primer/template, 50 nM PCNA, 10 nM Pol δ and variable concentrations of inhibitors. The reactions were initiated by addition of dNTPs and MgCl2. Reaction was allowed to proceed at 25° C. for 2 min before addition of stop buffer (95% formamide/25 mM EDTA). The products were separated on a 20% polyacrylamide gels urea. Products was visualized on phosphorimager and quantitated using Image-J software. For single nucleotide primer extension assay^18, the protocol is identical to primer extension assay except a single dNTP is used.

BxPC-3 cells = assay: Cell proliferation assay, MTT method; format: cell-based, human
Excerpt: (§1) DNA replication precedes cell division. Thus, cancer cells cannot divide and proliferate without successful chromosomal duplication. A DNA polymerase inhibitor should inhibit cancer cell proliferation. We characterized the antiproliferative properties of zelpolib on a number of cell lines originated from pancreatic cancer (BxPC-3) and breast cancer (MCF7 for ER+ breast cancer). In addition, we developed a cisplatin resistant subline of a pancreatic cancer cell line, R-BxPC3 for our studies as well. We used the MTT method^25 for analyzing cell proliferation. This assay is based on the reduction of 3-(4,5-dimethylthiazol-2-yl)-2,5-diphenyltetrazolium bromide by live cells to an insoluble formazon, which were subsequently dissolved in DMSO and quantified by UV absorbance. Therefore, the cell number is proportional to the optical density in the established linear region. […] The plateau phenomena indicate inhibition of proliferation without cell killing, similar to these observed from hydroxyurea^26, aphidicolin^27, and to a certain extent, methotrexate treatments^28. Direct inhibition of DNA polymerase activity provides a unique mechanism that is not employed by any of the current cancer therapeutics. We selected a number of most widely prescribed chemotherapeutics with distinct mechanisms to compare their antiproliferative potential in the 2 cancer cell lines. We included alkylating agent cisplatin, antimetabolites methotrexate and 5-flourouracil (5FU)^29-31. […] Whereas the comparison with cisplatin is biphasic.
(§2) Human cancer cells (5×10^3-7.5×10^3) were initially seeded in 96-well plates (Cellstar) containing 0.2 ml media per well. After 24 hrs, these cells were treated with variable concentrations drug combinations for 48-72 hrs. Subsequently, 4,5-dimethylthiazol-2-yl-2,5-diphenyltetrazolium bromide (MTT) (20 μl of 5 mg/ml) was added to each well for 3 hrs. Formazan crystals were then dissolved in 150 μl DMSO and optical density was read at 490 nm^25. All experiments were performed in triplicates. Results were analyzed by GraphPad Prism. Data represent mean value±SEM for each concentration of inhibitor combinations.

MCF7 cells = assay: Cell proliferation assay, MTT method; format: cell-based, human
Excerpt: as §1, §2

R-BxPC-3 cells = assay: Cell proliferation assay, MTT method; format: cell-based, human; settings: R-BxPC-3 (cisplatin resistant)
Excerpt: DNA replication precedes cell division. Thus, cancer cells cannot divide and proliferate without successful chromosomal duplication. A DNA polymerase inhibitor should inhibit cancer cell proliferation. We characterized the antiproliferative properties of zelpolib on a number of cell lines originated from pancreatic cancer (BxPC-3) and breast cancer (MCF7 for ER+ breast cancer). In addition, we developed a cisplatin resistant subline of a pancreatic cancer cell line, R-BxPC3 for our studies as well. We used the MTT method^25 for analyzing cell proliferation. This assay is based on the reduction of 3-(4,5-dimethylthiazol-2-yl)-2,5-diphenyltetrazolium bromide by live cells to an insoluble formazon, which were subsequently dissolved in DMSO and quantified by UV absorbance. Therefore, the cell number is proportional to the optical density in the established linear region. […] The plateau phenomena indicate inhibition of proliferation without cell killing, similar to these observed from hydroxyurea^26, aphidicolin^27, and to a certain extent, methotrexate treatments^28. […]
Human cancer cells (5×10^3-7.5×10^3) were initially seeded in 96-well plates (Cellstar) containing 0.2 ml media per well. […] Formazan crystals were then dissolved in 150 μl DMSO and optical density was read at 490 nm^25. […] Results were analyzed by GraphPad Prism. […]

T1 sequence (P28340 whole entry): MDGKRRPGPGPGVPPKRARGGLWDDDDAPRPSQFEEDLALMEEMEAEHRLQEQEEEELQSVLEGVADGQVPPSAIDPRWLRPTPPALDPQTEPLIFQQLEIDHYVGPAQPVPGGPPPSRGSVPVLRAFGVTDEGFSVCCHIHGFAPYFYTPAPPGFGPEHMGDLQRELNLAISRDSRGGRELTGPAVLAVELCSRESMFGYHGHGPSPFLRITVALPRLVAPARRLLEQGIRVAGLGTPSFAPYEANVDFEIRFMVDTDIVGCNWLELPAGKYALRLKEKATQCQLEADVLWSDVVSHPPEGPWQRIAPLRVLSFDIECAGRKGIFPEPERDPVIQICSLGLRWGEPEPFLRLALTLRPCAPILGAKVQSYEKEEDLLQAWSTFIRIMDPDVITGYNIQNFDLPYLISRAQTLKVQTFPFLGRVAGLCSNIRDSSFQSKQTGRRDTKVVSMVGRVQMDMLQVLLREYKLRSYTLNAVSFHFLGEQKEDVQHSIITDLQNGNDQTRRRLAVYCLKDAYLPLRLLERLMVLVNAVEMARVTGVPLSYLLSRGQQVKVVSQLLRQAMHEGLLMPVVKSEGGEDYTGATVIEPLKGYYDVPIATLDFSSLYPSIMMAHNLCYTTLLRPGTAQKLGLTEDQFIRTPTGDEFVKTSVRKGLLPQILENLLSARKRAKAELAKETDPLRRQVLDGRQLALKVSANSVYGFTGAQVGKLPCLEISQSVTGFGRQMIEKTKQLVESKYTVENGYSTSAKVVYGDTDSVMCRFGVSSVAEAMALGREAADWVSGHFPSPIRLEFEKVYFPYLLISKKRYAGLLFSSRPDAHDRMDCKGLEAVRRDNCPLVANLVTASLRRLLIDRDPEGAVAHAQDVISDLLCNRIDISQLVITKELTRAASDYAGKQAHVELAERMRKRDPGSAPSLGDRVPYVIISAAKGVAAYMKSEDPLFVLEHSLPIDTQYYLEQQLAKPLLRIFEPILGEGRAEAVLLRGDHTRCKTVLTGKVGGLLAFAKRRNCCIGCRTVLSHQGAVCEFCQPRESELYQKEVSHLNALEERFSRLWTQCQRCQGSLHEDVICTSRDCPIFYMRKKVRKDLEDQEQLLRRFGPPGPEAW
T1 sequence (P49005 whole entry partner): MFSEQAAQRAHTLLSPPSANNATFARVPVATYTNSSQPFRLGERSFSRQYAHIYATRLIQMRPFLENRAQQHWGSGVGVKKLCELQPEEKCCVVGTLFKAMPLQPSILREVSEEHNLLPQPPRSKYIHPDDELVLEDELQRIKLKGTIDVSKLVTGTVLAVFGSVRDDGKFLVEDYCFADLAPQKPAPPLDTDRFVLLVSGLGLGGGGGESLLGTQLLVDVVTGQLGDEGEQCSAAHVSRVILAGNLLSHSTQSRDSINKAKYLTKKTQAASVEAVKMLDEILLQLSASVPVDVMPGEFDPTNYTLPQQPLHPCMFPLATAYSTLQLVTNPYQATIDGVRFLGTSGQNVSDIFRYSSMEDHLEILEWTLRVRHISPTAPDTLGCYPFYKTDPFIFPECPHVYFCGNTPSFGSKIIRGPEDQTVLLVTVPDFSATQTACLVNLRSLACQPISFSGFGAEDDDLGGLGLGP
T1 sequence (Q15054 whole entry partner): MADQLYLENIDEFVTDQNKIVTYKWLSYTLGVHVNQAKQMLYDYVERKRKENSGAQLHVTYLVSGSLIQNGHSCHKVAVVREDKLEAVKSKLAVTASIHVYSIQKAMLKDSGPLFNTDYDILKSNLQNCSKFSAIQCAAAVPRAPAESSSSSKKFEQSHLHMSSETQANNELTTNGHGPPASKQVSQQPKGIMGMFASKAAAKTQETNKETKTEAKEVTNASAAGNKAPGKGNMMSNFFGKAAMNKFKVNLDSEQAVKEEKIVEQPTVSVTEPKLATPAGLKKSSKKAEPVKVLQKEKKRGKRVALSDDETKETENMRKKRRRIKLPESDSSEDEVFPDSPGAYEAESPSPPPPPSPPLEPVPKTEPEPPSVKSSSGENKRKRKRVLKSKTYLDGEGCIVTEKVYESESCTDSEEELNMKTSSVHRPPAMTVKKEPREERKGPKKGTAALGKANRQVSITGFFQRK
T1 sequence (P12004 whole entry partner): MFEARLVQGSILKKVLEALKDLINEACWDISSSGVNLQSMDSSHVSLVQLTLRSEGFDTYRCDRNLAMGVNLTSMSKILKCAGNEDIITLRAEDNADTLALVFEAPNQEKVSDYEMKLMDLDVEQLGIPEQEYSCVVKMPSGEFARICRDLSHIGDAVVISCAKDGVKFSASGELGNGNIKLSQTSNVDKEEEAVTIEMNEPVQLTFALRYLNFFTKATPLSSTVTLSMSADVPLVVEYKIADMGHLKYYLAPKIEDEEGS

Q: `COC(=O)c1cc(-c2ccccc2)sc1NC(=S)NNC(=O)CCc1ccc(O)c(O)c1` [zelpolib] was tested. Which “inhibition of incorporation of individual dNTPs (dATP, dGTP, dCTP, dTTP)” value (Pol δ) did it give?
A: inhibited the incorporation of all four nucleotides to similar extents in a noncompetitive manner

Q: What about the “antiproliferative activity compared with cisplatin” value (BxPC-3 cells; BxPC-3, MTT) of the same compound?
A: superior to cisplatin up to 10 μM

Q: What about the “antiproliferative activity compared with methotrexate and 5-FU” value (BxPC-3 cells; BxPC-3, MTT) of the same compound?
A: superior to methotrexate and 5-FU at all concentrations

Q: And the “concentration at which antiproliferative effect reaches a plateau” value (from here on “concentration”) (BxPC-3 cells; BxPC-3, MTT)?
A: about 5 μM

Q: What about the cytotoxicity (BxPC-3 cells; zelpolib alone, cell lines not specified) of the same compound?
A: minimal cell cytotoxicity

Q: And the “concentration” value (MCF7 cells)?
A: about 5 μM

Q: What about the “antiproliferative activity compared with methotrexate and 5-FU” value (MCF7 cells; 72 h) of the same compound?
A: superior to methotrexate and 5-FU across the concentration range

Q: What about the “antiproliferative activity, zelpolib versus cisplatin” value (MCF7 cells; 72 h) of the same compound?
A: at least as effective as cisplatin in inhibiting MCF7 cell growth up to 5 μM

Q: And the “concentration” value (R-BxPC-3 cells)?
A: about 5 μM
